Measurements from PMC10823475, “Design, Synthesis, and Evaluation of Inhibitors of Hedgehog Acyltransferase” (Journal of Medicinal Chemistry, 2024).
Several values for one entry are separate records, joined by “and”; a condition that tells them apart may be missing. Identical values can stand only once.

Key:
purified HHAT = biological target: T1, purified HHAT (Homo sapiens, UniProt Q5VTY9); test: Acyl-cLIP assay, inhibition of purified HHAT; format: biochemical; conditions: for LLEAcyl-cLIP: from Acyl-cLIP IC50 and clogDpH7.4; for IC50: purified HHAT, read-out: Acyl-cLIP Assay IC50 (CI95); for fold increase in potency compared to racemate: enantiomer vs racemate (29 vs 21, 30 vs 24, 43 vs 39)
T1 construct: made in house
T1 sequence (Q5VTY9 whole entry): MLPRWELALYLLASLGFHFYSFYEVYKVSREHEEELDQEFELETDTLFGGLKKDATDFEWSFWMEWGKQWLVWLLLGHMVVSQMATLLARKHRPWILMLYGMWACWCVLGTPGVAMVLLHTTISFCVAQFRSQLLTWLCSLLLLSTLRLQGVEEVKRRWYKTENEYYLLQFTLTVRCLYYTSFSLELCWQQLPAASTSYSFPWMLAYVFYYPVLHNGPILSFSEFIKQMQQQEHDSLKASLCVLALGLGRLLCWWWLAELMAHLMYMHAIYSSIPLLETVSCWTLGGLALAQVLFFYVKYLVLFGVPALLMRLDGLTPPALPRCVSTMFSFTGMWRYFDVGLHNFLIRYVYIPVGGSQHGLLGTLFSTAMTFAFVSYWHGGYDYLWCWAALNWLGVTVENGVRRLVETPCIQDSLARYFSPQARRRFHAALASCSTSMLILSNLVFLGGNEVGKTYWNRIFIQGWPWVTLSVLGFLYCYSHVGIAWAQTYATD
Summary of the method: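 Percent inhibition was first taken at 50 μM and 25 μM, then IC50 derived from variable-slope dose-response curves of initial rate constants, normalized against DMSO and HHAT-free samples. Reaction: purified DDM-solubilized HHAT transfers palmitoyl from palmitoyl-CoA onto a FAM-SHH peptide (MES, pH 6.5), monitored 30 min by fluorescence anisotropy.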

[1] = MTS assay, cytotoxicity (72 h); format: cell-based; conditions: human, HEK293a SHH+ cells, 72 h; for CC50 at 72 h: read-out: MTS Assay (HEK293a SHH+) CC50 (CI95)
Summary of the method: (§1)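 Cells plated at 5000/well, cultured 24 h, then exposed to analogues (0.14–100 μM final) in DMEM/10% FBS for 72 h. MTS/PMS added for 3 h at 37 °C and absorbance read at 490 nm; data normalised to DMSO vehicle and puromycin (2 μg/mL) wells, curves fitted with a variable-slope sigmoidal model.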

HEK293a SHH+ cells = test: MTS assay, cytotoxicity (72 h); format: cell-based; conditions: for decrease in cell viability / cell survival: 12.5 μM; for CC50: 72 h, read-out: MTS Assay (HEK293a SHH+) CC50 (CI95)
Summary of the method: as §1

[2] = system: HH signaling (HEK293a SHH+ conditioned media on SHH-Light2 cells); test: Light2 dual-luciferase cell-based HH signaling assay (Firefly); conditions: Firefly luciferase, Light2 cells; read-out: HH signaling inhibition EC50 (CI95)
Description: Subsequently, the effect of analogues on HH signaling was investigated using a cellular luciferase reporter assay. Light2 cells derived from NIH3T3 cells constitutively express Renilla luciferase as an internal control for cell density alongside Firefly luciferase under the control of a HH-responsive Gli promoter.[43] HEK293a SHH^+ cells were incubated with varying inhibitor concentrations and SHH-containing conditioned media transferred to the NIH3T3-Light2 cells to mimic paracrine signaling[30],[35] (Figure 6A).
The Light2 cell-based signaling assay has been described previously.[35] Briefly, HEK293a SHH^+ cells were plated at 120,000 cells/well of a 12-well plate in a volume of 1 mL/well and cultured as described above. After 24 h, cells were washed with PBS, followed by addition of 1 mL of media containing 0.2% DMSO or varying inhibitor concentrations in DMSO (0.041–30 μM final). Additionally, SHH-Light2 cells were plated at 20,000 cells/well of a 96-well plate in 50 μL media. After another 24 h, 300 μL of the conditioned media were collected from each well of the treated HEK293a SHH^+ cells, centrifuged at 1000g for 10 min to remove detached cells and split into three wells of the SHH-Light2 cells (100 μL/well; 150 μL final volume in each well). The treated Light2 cells were cultured for another 48 h and subsequently washed with PBS. Firefly and Renilla luciferase activity was measured using the Dual-Luciferase reporter system (Promega Corporation, USA). Then 20 μL of 1× passive lysis buffer were added to each well. After 30 min at RT, 5 μL of each lysate were transferred to a white opaque 96-well plate. Then 20 μL/well of luciferase assay reagent II was added and the luminescence immediately recorded using a SpectraMax i3x plate reader (Molecular Devices LLC). Subsequently, 20 μL/well of 1× Stop&Glo substrate in Stop&Glo buffer was added and the luminescence immediately recorded for a second time. Data was evaluated using a “sigmoidal dose response (variable slope)” model in GraphPad Prism 5 (GraphPad Software, Inc.). The luminescence signal of the Firefly luciferase was normalized to the DMSO vehicle (100%) and the unconditioned media (0%) controls.

[3] = Microsomal incubations, mouse liver microsomes; format: in vitro ADME; conditions: 1 μM
Description: (§2) Metabolic stability assays were performed using a Microlab Star liquid handling workstation (Hamilton Robotics, Bonaduz, Switzerland). Test compounds (1 μM, 1% DMSO) were preincubated at 37 °C for 10 min in 0.5 mg/mL female CD1 mouse and mixed gender human liver microsomes in 10 mM phosphate buffered saline (PBS; Sigma-Aldrich Company Ltd. (Dorset, UK)). Microsomes were purchased either from Sekisui XenoTech, LLC (Kansas City, USA) or BioreclamationIVT (Frankfurt Am Main, Germany). Reactions were initiated by the addition of NADPH (final concentration 1 mM). At 0, 15, and 30 min, aliquots were removed from each incubation and quenched in 3 volumes of ice-cold methanol containing olomoucine (Sigma-Aldrich, Dorset, UK) as an internal standard. […] The percentage metabolized was calculated by comparing peak area ratio (peak area test compound/peak area of internal standard) at t = 15 and 30 min versus t = 0 min.

[4] = Microsomal incubations, human liver microsomes; format: in vitro ADME; conditions: 1 μM
Description: as §2

[5] = PAMPA parallel artificial membrane permeability assay; conditions: for recovery at 16 h, 10 µM / Papp at 16 h, 10 μM: PAMPA
Description: Passive diffusion was estimated using the PAMPA method. […] The donor plate was a MultiScreen-IP Plate with 0.45 μm hydrophobe Immobilon-P Membrane (Millipore, #MAIPNTR10) and the acceptor plate was a MultiScreen 96-well Transport Receiver Plate (Millipore, #MATRNPS50). […] Acceptor pH was 7.4. All samples were analyzed against an external, matrix-matched, standard curve by LC-MS/MS with a Waters (Elstree, Herts. UK) Acquity H-class LC system coupled to a Waters TQ-S mass spectrometer. Permeability values (cm/s) were calculated using the following equation: [drawing 2] and VD = volume of donor; VA = volume of acceptor; area = surface area of the membrane · porosity.

| Structure (SMILES) | inhibition at 25 µM (purified HHAT) | inhibition at 50 µM (purified HHAT) | LLEAcyl-cLIP (purified HHAT) | IC50 (purified HHAT) | CC50 at 72 h [1] | viability at 72 h, 12.5 µM [1] | viability at 72 h, 25 µM [1] | decrease in cell viability / cell survival (HEK293a SHH+ cells) | EC50 [2] | toxicity to HEK293a SHH+ cells (HEK293a SHH+ cells) | CC50 (HEK293a SHH+ cells) | also measured |
| --- | --- | --- | --- | --- | --- | --- | --- | --- | --- | --- | --- | --- |
| C=CCNCC(=O)N1CCc2sccc2C1c1ccccc1 (centres unmarked) [Compound 12, 2-(Allylamino)-1-(4-phenyl-6,7-dihydrothieno[3,2-c]pyridin-5(4H)-yl)ethan-1-one] | 68 ± 5% | 83 ± 1% | 2.94 | 6.55 µM | > 50 µM | 86 ± 2% | 73 ± 2% | < 30% | 2920 nM | – | – | – |
| CCC(C)CNCC(=O)N1CCc2ccc(Cl)cc2C1c1ccccc1 (centres unmarked) [Compound 45, 1-(7-Chloro-1-phenyl-3,4-dihydroisoquinolin-2(1H)-yl)-2-((2-methylbutyl)amino)ethan-1-one] | 89 ± 3% | 93 ± 3% | 2.43 | 4.22 µM | 15.4 µM | 70 ± 3% | 14 ± 4% | < 30% | 6440 nM | toxic | – | – |
| CC(=O)N1CCc2ccccc2C1c1ccccc1 (centres unmarked) [Compound 37, 1-(1-Phenyl-3,4-dihydroisoquinolin-2(1H)-yl)ethan-1-one] | 55 ± 7% | 53 ± 3% | – | > 25 µM | 47.9 µM | 101 ± 5% | 94 ± 6% | – | – | – | > 50 µM | MLM % metabolized after 15 min ([3]; 15 min): 94.6% and > 90%; MLM % metabolized after 30 min ([3]; 30 min): 99.8%; HLM % metabolized after 15 min ([4]; 15 min): 45.2%; HLM % metabolized after 30 min ([4]; 30 min): 55.9%; recovery at 16 h, 10 µM ([5]; pH 5): 95%; Papp at 16 h, 10 μM ([5]; pH 5, PAMPA Papp pH 5, donor pH 5, 10 µM): > 200 ×10⁻⁶ cm/s; Papp at 16 h, 10 μM ([5]; pH 5, PAMPA Permeability Class pH 5, donor pH 5, 10 µM): > 20 ×10⁻⁶ cm/s; recovery at 16 h, 10 µM ([5]; pH 6.5): 92%; Papp at 16 h, 10 μM ([5]; pH 6.5, PAMPA Papp pH 6.5, donor pH 6.5, 10 µM): > 200 ×10⁻⁶ cm/s; Papp at 16 h, 10 μM ([5]; pH 6.5, PAMPA Permeability Class pH 6.5, donor pH 6.5, 10 µM): > 20 ×10⁻⁶ cm/s; recovery at 16 h, 10 µM ([5]; pH 7.4): 89%; Papp at 16 h, 10 μM ([5]; pH 7.4, PAMPA Papp pH 7.4, donor pH 7.4, 10 µM): > 200 ×10⁻⁶ cm/s; Papp at 16 h, 10 μM ([5]; pH 7.4, PAMPA Permeability Class pH 7.4, donor pH 7.4, 10 µM): > 20 ×10⁻⁶ cm/s; PAMPA permeability ([5]; over the full pH range tested): high permeability; PAMPA passive permeability ([5]; pH 7.4): high passive permeability |
| CCC(C)CNCC(=O)N1CCc2sccc2C1c1ccccn1 (centres unmarked) [Compound 19, 2-(2-Methylbutylamino)-1-[4-(pyridin-2-yl)-6,7-dihydro-4H-thieno[3,2-c]pyridin-5-yl]ethanone] | 81 ± 1% | 91 ± 1% | 3.84 | 7.98 µM | 20.3 µM | 87 ± 1% | 75 ± 4% | < 30% | 580 nM | toxic | – | – |
| CC(C)CNCC(=O)N1CCc2ccccc2C1c1ccccc1 (stereo in doubt) [Compound 43, (R)-2-((2-Methylpropyl)amino)-1-(1-phenyl-3,4-dihydroisoquinolin-2(1H)-yl)ethan-1-one] | 88 ± 3% | 93 ± 3% | 3.64 | 2.77 µM | > 50 µM | 98 ± 2% | 97 ± 3% | < 30% | 800 nM | – | > 100 µM | fold increase in potency compared to racemate (purified HHAT): 2 fold |
| CC[C@H](C)CNCC(=O)N1CCc2sccc2C1c1cccc(C)n1 (some centres unmarked) [Compound 23] | 87 ± 7% | 86 ± 8% | 4.04 | 3.71 µM | > 50 µM | 87 ± 2% | 74 ± 3% | – | 1580 nM | – | > 100 µM | – |
| CC(C)CNCC(=O)N1CCc2ccccc2C1c1ccccc1 (centres unmarked) [Compound 39, 2-((2-Methylpropyl)amino)-1-(1-phenyl-3,4-dihydroisoquinolin-2(1H)-yl)ethan-1-one] | 81 ± 2% | 86 ± 1% | 3.30 | 6.02 µM | > 50 µM | 94 ± 3% | 92 ± 4% | < 30% | 2590 nM | – | > 100 µM | – |
| CC(=O)N1CCc2sccc2[C@@H]1c1cccc(C)n1 [Compound 29, (R)-1-(4-(6-Methylpyridin-2-yl)-6,7-dihydrothieno[3,2-c]pyridin-5(4H)-yl)ethan-1-one] | 76 ± 2% | 86 ± 2% | 3.10 | 7.45 µM | > 50 µM | 92 ± 3% | 88 ± 5% | < 30% | 1290 nM | – | > 100 µM | fold increase in potency compared to racemate (purified HHAT): 2 fold |
| CCC(C)CNCC(=O)N1CCc2sccc2C1c1ccccc1OC (centres unmarked) [Compound 32, 1-(4-(2-Methoxyphenyl)-6,7-dihydrothieno[3,2-c]pyridin-5(4H)-yl)-2-((2-methylbutyl)amino)ethan-1-one] | 66 ± 2% | 79 ± 2% | 3.00 | 8.09 µM | 7.6 µM | 55 ± 3% | 42 ± 2% | – | > 30000 nM | toxic | – | – |
